Data reported in patent US9493444B2 (Merck Patent GmbH, priority 2012, dated 2016).

Test system: Wnt pathway (TCF-dependent transcription in HEK293 luciferase reporter cell line with ER-DSH construct)
Experiment: Cellular assay for Wnt pathway activity (luciferase reporter)
Type: cell-based
Conditions: Homo sapiens; Wnt pathway inhibition, HEK293 luciferase reporter cells (ER-DSH, TCF promoter), 24 hours incubation, estrogen-induced
Protocol: 1. Cellular Assay for Wnt Pathway Activity
Compounds were tested for their Wnt pathway inhibitory activities using a luciferase reporter cell based assay. A HEK293 luciferase reporter cell line was used which contained an Estrogen Receptor-Dishevelled (ER-DSH) construct and a T-Cell Factor (TCF) dependent gene promoter luciferase construct.
Compounds, in concentrations from 30 μM down to 1 nM, were incubated for 24 hours on the cells, which were induced for TCF-dependent transcription by the addition of estrogen (10). Luciferase activities were determined using the ONE GLO Luciferase Assay System (Promega) and the ENVISION microplate reader (Perkin Elmer). For analysis, the obtained data were normalized against the untreated vehicle control and fitted for determination of the IC50 values using the Assay Explorer software (Accelrys).

Row | SMILES | IC50
1 | CCN(CC1CCCN(c2cncc(Oc3ccc(OC)cc3)n2)C1)C(C)=O (centres unmarked) [Compound 73, N-Ethyl-N-{1-[6-(4-methoxy-phenoxy)-pyrazin-2-yl]-piperidin-3-ylmethyl}-acetamide] | 1000 to 10000 nM
2 | COc1ccc(Oc2cncc(N(C)CCN(C)C(=O)CCC(C)C)n2)cc1 [Compound 64, 4-Methyl-pentanoic acid (2-{[6-(4-methoxy-phenoxy)-pyrazin-2-yl]-methyl-amino}-ethyl)-methyl-amide] | 1000 to 10000 nM
3 | CCN(CCNc1cncc(Oc2cccc(F)c2)n1)C(C)=O [Compound 70, N-Ethyl-N-{2-[6-(3-fluoro-phenoxy)-pyrazin-2-ylamino]-ethyl}-acetamide] | 1000 to 10000 nM
4 | CC(=O)N(C)CCN(C)c1cncc(Oc2ccc(-c3ccccc3)cc2)n1 [Compound 98, N-(2-{[6-(Biphenyl-4-yloxy)-pyrazin-2-yl]-methyl-amino}-ethyl)-N-methyl-acetamide] | < 200 nM
5 | N#Cc1cnccc1-c1ccc(Oc2cncc(NCCN3CCCCC3=O)n2)cc1 [Compound 296, 4-(4-{6-[2-(2-Oxo-piperidin-1-yl)-ethylamino]-pyrazin-2-yloxy}-phenyl)-nicotinonitrile] | 200 to 1000 nM
6 | CC(=O)N(C)CCN(C)c1cncc(Oc2ccc(Br)c(F)c2F)n1 [Compound 248, N-(2-{[6-(4-Bromo-2,3-difluoro-phenoxy)-pyrazin-2-yl]-methyl-amino}-ethyl)-N-methyl-acetamide] | 200 to 1000 nM
7 | CC(=O)N(C)CCN(C)c1cncc(Oc2ccc(-c3ccnc(C#N)c3)cc2)n1 [Compound 201, N-[2-({6-[4-(2-Cyano-pyridin-4-yl)-phenoxy]-pyrazin-2-yl}-methyl-amino)-ethyl]-N-methyl-acetamide] | < 200 nM
8 | COc1ccc(Oc2cncc(N(C)CCCN(C)C(C)=O)n2)cc1 [Compound 80, N-(3-{[6-(4-Methoxy-phenoxy)-pyrazin-2-yl]-methyl-amino}-propyl)-N-methyl-acetamide] | 1000 to 10000 nM
9 | CC(=O)N(C)CCN(C)c1cncc(Oc2ccc(B(O)O)cc2)n1 [Compound 7, 4-(6-{[2-(Acetyl-methyl-amino)-ethyl]-methyl-amino}-pyrazin-2-yloxy)-boronic acid] | 200 to 1000 nM
10 | CC(=O)N(C)CCCc1cncc(Oc2ccc(-c3cccc(N4CCN(C)CC4)n3)cc2)n1 [Compound 217, N-Methyl-N-[3-(6-{4-[6-(4-methyl-piperazin-1-yl)-pyridin-2-yl]-phenoxy}-pyrazin-2-yl)-propyl]-acetamide] | 200 to 1000 nM
11 | CC(=O)N(C)CCN(C)c1cncc(Oc2ccc(Cl)c(Cl)c2)n1 [Compound 89, N-(2-{[6-(3,4-Dichloro-phenoxy)-pyrazin-2-yl]-methyl-amino}-ethyl)-N-methyl-acetamide] | 200 to 1000 nM
12 | CC(=O)N(C)CCCc1cncc(Oc2ccc(-c3ccncc3C#N)cc2F)n1 [Compound 266, N-(3-{6-[4-(3-Cyano-pyridin-4-yl)-2-fluoro-phenoxy]-pyrazin-2-yl}-propyl)-N-methyl-acetamide] | < 200 nM
13 | CC(=O)N(C)CCCc1cncc(Oc2ccc(-c3ccc(C)cn3)cc2)c1 [Compound 312, N-Methyl-N-(3-{5-[4-(5-methyl-pyridin-2-yl)-phenoxy]-pyridin-3-yl}-propyl)-acetamide] | 1000 to 10000 nM
14 | CC(=O)N(C)CCN(C)c1cncc(Oc2ccc(CCC#N)cc2)n1 [Compound 232, N-[2-({6-[4-(2-Cyano-ethyl)-phenoxy]-pyrazin-2-yl}-methyl-amino)-ethyl]-N-methyl-acetamide] | < 200 nM
15 | CC(=O)N(C)CCN(C)c1cncc(Oc2ccc(-c3ccc(C)cn3)cc2F)n1 [Compound 229, N-[2-({6-[2-Fluoro-4-(5-methyl-pyridin-2-yl)-phenoxy]-pyrazin-2-yl}-methyl-amino)-ethyl]-N-methyl-acetamide] | < 200 nM
16 | CC(=O)N(C)CCN(C)c1cncc(Oc2ccc(CO)cc2)n1 [Compound 181, N-(2-{[6-(4-Hydroxymethyl-phenoxy)-pyrazin-2-yl]-methyl-amino}-ethyl)-N-methyl-acetamide] | < 200 nM
17 | CC(=O)N(C)CCNc1cncc(Oc2ccc(-c3ccncc3)cc2)n1 [Compound 255, N-Methyl-N-{2-[6-(4-pyridin-4-yl-phenoxy)-pyrazin-2-ylamino]-ethyl}-acetamide] | 1000 to 10000 nM
18 | CC(=O)N(C)CCN(C)c1cncc(Oc2ccc(-c3cnn(C)c3)cc2)n1 [Compound 313, N-Methyl-N-[2-(methyl-{6-[4-(1-methyl-1H-pyrazol-4-yl)-phenoxy]-pyrazin-2-yl}-amino)-ethyl]-acetamide] | < 200 nM
19 | CC(=O)NCCSc1cncc(Oc2ccc(F)cc2)n1 [Compound 119, N-{2-[6-(4-Fluoro-phenoxy)-pyrazin-2-ylsulfanyl]-ethyl}-acetamide] | 1000 to 10000 nM
20 | CC(=O)N(C)CCN(C)c1cncc(Oc2ccc(-c3ncnc4[nH]ccc34)cc2)n1 [Compound 191, N-Methyl-N-[2-(methyl-{6-[4-(7H-pyrrolo[2,3-d]pyrimidin-4-yl)-phenoxy]-pyrazin-2-yl}-amino)-ethyl]-acetamide] | < 200 nM
21 | CC(=O)N(C)CCN(C)c1cncc(Oc2ccc(-c3cncnc3)cc2)n1 [Compound 209, N-Methyl-N-(2-{methyl-[6-(4-pyrimidin-5-yl-phenoxy)-pyrazin-2-yl]-amino}-ethyl)-acetamide] | < 200 nM
22 | CC(=O)N(C)CCSc1cncc(Oc2ccc(F)cc2)n1 [Compound 136, N-{2-[6-(4-Fluoro-phenoxy)-pyrazin-2-ylsulfanyl]-ethyl}-N-methyl-acetamide] | < 200 nM
23 | CC(=O)Nc1ccc(-c2ccc(Oc3cncc(NCCN(C)C(C)=O)n3)c(F)c2)cn1 [Compound 258, N-[5-(4-{6-[2-(Acetyl-methyl-amino)-ethylamino]-pyrazin-2-yloxy}-3-fluoro-phenyl)-pyridin-2-yl]-acetamide] | 200 to 1000 nM
24 | Cc1ccc(-c2ccc(Oc3cncc(N(C)CCN4CCCCC4=O)n3)cc2)nc1 [Compound 193, 1-[2-(Methyl-{6-[4-(5-methyl-pyridin-2-yl)-phenoxy]-pyrazin-2-yl}-amino)-ethyl]-piperidin-2-one] | < 200 nM
25 | CC(=O)N(C)CCN(C)c1cncc(Oc2ccc(F)cc2)c1 [Compound 310, N-(2-{[5-(4-Fluoro-phenoxy)-pyridin-3-yl]-methyl-amino}-ethyl)-N-methyl-acetamide] | 1000 to 10000 nM
26 | CC(=O)N(C)CCN(C)c1cncc(Oc2ccc(-c3ccc(N4CCNCC4)nc3)cc2)n1 [Compound 245, N-Methyl-N-[2-(methyl-{6-[4-(6-piperazin-1-yl-pyridin-3-yl)-phenoxy]-pyrazin-2-yl}-amino)-ethyl]-acetamide] | < 200 nM
27 | CC(=O)N(C)CCN(C)c1cncc(Oc2ccc3ccncc3c2)n1 [Compound 112, N-(2-{[6-(Isoquinolin-7-yloxy)-pyrazin-2-yl]-methyl-amino}-ethyl)-N-methyl-acetamide] | < 200 nM
28 | CC(=O)N(C)CCCc1cncc(Oc2ccc(-c3ccncc3)cc2F)n1 [Compound 270, N-{3-[6-(2-Fluoro-4-pyridin-4-yl-phenoxy)-pyrazin-2-yl]-propyl}-N-methyl-acetamide] | 200 to 1000 nM
29 | CC(=O)N(C)CCN(C)c1cncc(Oc2ccc(-c3ccc(C#N)nc3)cc2)n1 [Compound 211, N-[2-({6-[4-(6-Cyano-pyridin-3-yl)-phenoxy]-pyrazin-2-yl}-methyl-amino)-ethyl]-N-methyl-acetamide] | < 200 nM
